Assay results as given in patent publication US20260325685A1, “Radiopharmaceutical Compositions Targeting Carbonic Anhydrase IX and Uses Thereof” (RayzeBio, Inc., priority 2023, published 2026).
Where two headings read alike, the source gives them in different places.

Legend:
[1] = target: T1, human CA-IX (Homo sapiens, UniProt Q16790); experiment: Surface Plasmon Resonance (SPR) binding kinetics to recombinant human CA-IX (Biacore 8K, single-cycle kinetics, 1:1 binding model)
T1 construct: purchased Acro CA9-H82E3
Procedure, shortened: (§1)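 Proteins were captured on streptavidin chips at 1200-1800 RU (CA-IX 180 s, CA-XII 75 s injection). Compound was run at 9 concentrations (100-0.39 nM) in PBS-P+ pH 7.4 with 1% DMSO, 120 s association, 1200 s dissociation, 25° C. Rate constants came from reference- and DMSO-corrected curves.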

[2] = target: T2, human CA-XII (Homo sapiens, UniProt O43570); experiment: Surface Plasmon Resonance (SPR) binding kinetics to recombinant human CA-XII (Biacore 8K, single-cycle kinetics, 1:1 binding model)
T2 construct: purchased Creative BioMart CA12-261H
Procedure, shortened: as §1

[3] = Chelated Metal: Lu-175; SPR, 25° C., pH 7.4; read-out: CAIX KD
[4] = Chelated Metal: Lu-175, 25° C., pH 7.4, read-out: CAXII KD
[5] = read-out: CAIX KD; Chelated Metal: Lu-175; SPR, 25° C., pH 7.4
[6] = read-out: CAXII KD, Chelated Metal: Lu-175, 25° C., pH 7.4

T2 sequence (O43570 25-354): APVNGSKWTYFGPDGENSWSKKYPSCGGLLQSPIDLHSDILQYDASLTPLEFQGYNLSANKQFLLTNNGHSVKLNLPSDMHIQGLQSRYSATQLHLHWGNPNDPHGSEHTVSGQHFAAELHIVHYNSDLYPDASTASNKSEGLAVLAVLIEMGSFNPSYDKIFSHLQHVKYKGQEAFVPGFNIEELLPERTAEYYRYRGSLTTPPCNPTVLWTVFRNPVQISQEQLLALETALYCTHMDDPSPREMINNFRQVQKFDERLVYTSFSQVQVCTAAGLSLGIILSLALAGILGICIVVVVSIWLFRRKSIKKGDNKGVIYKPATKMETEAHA

Row | Structure (SMILES) | Kd [1, 3] [nM] | Kd [2, 4] [nM] | further results
1 | CC(CCC(=O)N[C@@H](CC(=O)N[C@@H](Cc1cn([C@@H](CCCCn2cc(C34CC(C(=O)Nc5nnc(S(N)(=O)=O)s5)(C3)C4)nn2)C(=O)NCCOCCOCCNC(=O)CN2CCN(CC(=O)O)CCN(CC(=O)O)CCN(CC(=O)O)CC2)nn1)C(=O)O)C(=O)O)(c1ccc(O)cc1)c1ccc(O)cc1.[Lu+3] [Compound 101.2] | < 1 | 2.5 to 10 | –
2 | NS(=O)(=O)c1nnc(NC(=O)C23CC(c4cn(CCNC(=O)[C@@H]5CN(C(=O)CN6CCN(CC(=O)O)CCN(CC(=O)O)CCN(CC(=O)O)CC6)CCN5C(=O)C[C@H](NC(=O)C[C@H](NC(=O)c5coc(C(F)(F)F)n5)C(=O)O)C(=O)O)nn4)(C2)C3)s1.[Lu+3] [Compound 109.17] | 2.5 to 10 | > 10 | –
3 | NS(=O)(=O)c1nnc(CC(=O)C23CC(c4cn(CCNC(=O)[C@H]5COCCN5C(=O)CC[C@H](NC(=O)[C@H](CCCCNC(=O)CN5CCN(CC(=O)O)CCN(CC(=O)O)CCN(CC(=O)O)CC5)NC(=O)CCC5CCCCC5)C(=O)O)nn4)(C2)C3)s1.[Lu+3] [Compound 118.1] | 1 to 2.5 | > 10 | –
4 | CC(CCCC(=O)N1CCC(C(=O)O)(C(=O)NCC(=O)N2CCN(C(=O)CN3CCN(CC(=O)O)CCN(CC(=O)O)CCN(CC(=O)O)CC3)C[C@@H]2C(=O)N[C@@H](Cn2cc(C34CC(C(=O)Nc5nnc(S(N)(=O)=O)s5)(C3)C4)nn2)C(=O)O)CC1)(c1ccc(O)cc1)c1ccc(O)cc1.[Lu+3] [Compound 107.23] | < 1 | > 10 | –
5 | NS(=O)(=O)c1nnc(NC(=O)C23CC(c4cn(CCNC(=O)[C@@H]5CN(C(=O)CN6CCN(CC(=O)O)CCN(CC(=O)O)CCN(CC(=O)O)CC6)CCN5C(=O)CNC(=O)C5(C(=O)O)CCN(C(=O)CCC6CCCCCC6)CC5)nn4)(C2)C3)s1.[Lu+3] [Compound 112.7] | < 1 | > 10 | –
6 | NS(=O)(=O)c1nnc(NC(=O)C23CC(c4cn(CCNC(=O)[C@@H]5CN(C(=O)CN6CCN(CC(=O)O)CCN(CC(=O)O)CCN(CC(=O)O)CC6)CCN5C(=O)CNC(=O)C5(C(=O)O)CCN(C(=O)Cc6ccc(C7CC7)cc6)CC5)nn4)(C2)C3)s1.[Lu+3] [Compound 112.12] | 1 to 2.5 | > 10 | –
7 | CC(CCC(=O)N[C@@H](CC(=O)N[C@@H](CC(=O)N1CCN(C(=O)CCC(CCC(=O)N2CCN(C(=O)C[C@H](NC(=O)C[C@H](NC(=O)CCC(C)(c3ccc(O)cc3)c3ccc(O)cc3)C(=O)O)C(=O)O)[C@H](C(=O)NCCn3cc(C45CC(C(=O)Nc6nnc(S(N)(=O)=O)s6)(C4)C5)nn3)C2)NC(=O)CN2CCN(CC(=O)O)CCN(CC(=O)O)CCN(CC(=O)O)CC2)C[C@H]1C(=O)NCCn1cc(C23CC(C(=O)Nc4nnc(S(N)(=O)=O)s4)(C2)C3)nn1)C(=O)O)C(=O)O)(c1ccc(O)cc1)c1ccc(O)cc1 (stereo partly shown) [Compound 131.4] | – | – | Kd ([1]; Chelated Metal: None; SPR, 25° C., pH 7.4; read-out: CAIX KD): < 1 nM; Ratio (CAXII/CAIX) ([1]; KD ratio CAXII/CAIX; Chelated Metal: None): * (1 < * < 5); Kd ([2]; Chelated Metal: None, 25° C., pH 7.4, read-out: CAXII KD): < 1 nM
8 | CC(CC(=O)N1CCC(C(N)=O)(C(=O)NCC(=O)N[C@@H](CCCCn2cc(CCCC(=O)Nc3nnc(S(N)(=O)=O)s3)nn2)C(=O)NCCOCCOCCNC(=O)CN2CCN(CC(=O)O)CCN(CC(=O)O)CCN(CC(=O)O)CC2)CC1)(c1ccc(O)cc1)c1ccc(O)cc1.[Lu+3] [Compound 102.2] | 2.5 to 10 | > 10 | –
9 | CC(CCCC(=O)N1CCOC[C@H]1C(=O)N[C@@H](CC(=O)N1CCN(C(=O)CN2CCN(CC(=O)O)CCN(CC(=O)O)CCN(CC(=O)O)CC2)C[C@@H]1C(=O)NCCn1cc(C23CC(C(=O)Nc4nnc(S(N)(=O)=O)s4)(C2)C3)nn1)C(N)=O)(c1ccc(O)cc1)c1ccc(O)cc1.[Lu+3] [Compound 107.44] | < 1 | > 10 | –
10 | CC(CCC(=O)N[C@@H](CC(=O)N[C@@H](CC(=O)N1CCN(C(=O)CN2CCN(CC(=O)O)CCN(CC(=O)O)CCN(CC(=O)O)CC2)C[C@H]1C(=O)NCCn1cc(C23CC(C(=O)Nc4nnc(S(N)(=O)=O)s4)(C2)C3)nn1)C(=O)O)C(=O)O)(c1ccccc1)c1ccc(O)cc1.[Lu+3] (stereo partly shown) [Compound 109.33] | 1 to 2.5 | > 10 | –
11 | NS(=O)(=O)c1nnc(NC(=O)C23CC(c4cn(CCNC(=O)[C@H]5CNCCN5C(=O)[C@H](CCCCNC(=O)CN5CCN(CC(=O)O)CCN(CC(=O)O)CCN(CC(=O)O)CC5)NC(=O)CC[C@H](NC(=O)CCC5CCCCC5)C(=O)O)nn4)(C2)C3)s1.[Lu+3] [Compound 118] | – | – | Kd [1, 5]: 1 to 2.5 nM; Kd [2, 6]: 2.5 to 10 nM
12 | CC(CCCC(=O)N1CCC(C(N)=O)(C(=O)NCC(=O)NC2(C(=O)NCCn3cc(C45CC(C(=O)Nc6nnc(S(N)(=O)=O)s6)(C4)C5)nn3)CCN(C(=O)CN3C[C@@H]4CN(C(=O)CN5CCN(CC(=O)O)CCN(CC(=O)O)CCN(CC(=O)O)CC5)C[C@@H]4C3)CC2)CC1)(c1ccc(O)cc1)c1ccc(O)cc1.[Lu+3] (racemic) [Compound 129.6] | < 1 | > 10 | –
13 | CC(CCC(=O)N[C@@H](CC(=O)N[C@@H](CC(=O)N1CCN(C(=O)CN2CCN(CC(=O)O)CCN(CC(=O)O)CCN(CC(=O)O)CC2)C[C@H]1C(=O)NCCn1cc(C23CCC(C(=O)Nc4nnc(S(N)(=O)=O)s4)(C2)C3)nn1)C(=O)O)C(=O)O)(c1ccc(O)cc1)c1ccc(O)cc1.[Lu+3] [Compound 107.5] | < 1 | < 1 | –
14 | NS(=O)(=O)c1nnc(NC(=O)C23CC(c4cn(CCNC(=O)[C@@H]5CN(C(=O)CN6CCN(CC(=O)O)CCN(CC(=O)O)CCN(CC(=O)O)CC6)CCN5C(=O)CNC(=O)C5(C(=O)O)CCN(C(=O)Cc6c[nH]nc6C(F)(F)F)CC5)nn4)(C2)C3)s1.[Lu+3] [Compound 112.14] | 2.5 to 10 | > 10 | –
15 | CC(CCC(=O)N[C@@H](CCC(=O)N1CCN(C(=O)CN2CCN(CC(=O)O)CCN(CC(=O)O)CCN(CC(=O)O)CC2)C[C@@H]1C(=O)NCCn1cc(C23CC(C(=O)Nc4nnc(S(N)(=O)=O)s4)(C2)C3)nn1)C(=O)O)(c1ccc(O)cc1)c1ccc(O)cc1.[Lu+3] [Compound 107.11] | < 1 | > 10 | –
16 | NS(=O)(=O)c1nnc(NC(=O)C23CC(c4cn(CCNC(=O)[C@@H]5CN(C(=O)CN6CCN(CC(=O)O)CCN(CC(=O)O)CCN(CC(=O)O)CC6)CCN5C(=O)C[C@H](Nc5ncc(C(=O)NCCc6ccc(F)c(F)c6)cn5)C(=O)O)nn4)(C2)C3)s1.[Lu+3] [Compound 111.8] | 2.5 to 10 | > 10 | –
17 | NS(=O)(=O)c1nnc(NC(=O)C23CCC(c4cn(CCNC(=O)[C@@H]5CN(C(=O)CCCc6ccc(O)cc6)CCN5C(=O)CC[C@H](NC(=O)C[C@H](NC(=O)CN5CCN(CC(=O)O)CCN(CC(=O)O)CCN(CC(=O)O)CC5)C(=O)O)C(=O)O)nn4)(CC2)CC3)s1.[Lu+3] [Compound 132] | – | – | Kd [1, 5]: < 1 nM; Kd [2, 6]: 1 to 2.5 nM
18 | NS(=O)(=O)c1nnc(NC(=O)C23CC(c4cn(CCNC(=O)[C@@H]5CN(C(=O)CN6CCN(CC(=O)O)CCN(CC(=O)O)CCN(CC(=O)O)CC6)CCN5C(=O)C[C@H](NC(=O)C[C@H](NCC5CC5)C(=O)O)C(=O)O)nn4)(C2)C3)s1.[Lu+3] [Compound 109.29] | 2.5 to 10 | > 10 | –
19 | Cc1cc(C2CC2)ccc1C(=O)N[C@@H](CC(=O)N[C@@H](CC(=O)N1CCN(C(=O)CN2CCN(CC(=O)O)CCN(CC(=O)O)CCN(CC(=O)O)CC2)C[C@H]1C(=O)NCCn1cc(C23CC(C(=O)Nc4nnc(S(N)(=O)=O)s4)(C2)C3)nn1)C(=O)O)C(=O)O.[Lu+3] [Compound 109.30] | < 1 | 2.5 to 10 | –
20 | NS(=O)(=O)c1nnc(NC(=O)C23CC(c4cn(CCNC(=O)[C@@H]5CN(C(=O)CN6CCN(CC(=O)O)CCN(CC(=O)O)CCN(CC(=O)O)CC6)CCN5C(=O)C[C@H](NC(=O)C[C@H](NC(=O)CCCc5ccc(I)cc5)C(=O)O)C(=O)O)nn4)(C2)C3)s1.[Lu+3] [Compound 109.14] | < 1 | 2.5 to 10 | –
21 | CC(CCCC(=O)N1CCC(C(N)=O)(C(=O)NCC(=O)N2CCN(C(=O)CN3CCN(CC(=O)O)CCN(CC(=O)O)CCN(CC(=O)O)CC3)C[C@H]2C(=O)NCCn2nnc(C34CC(C(=O)Nc5nnc(S(N)(=O)=O)s5)(C3)C4)c2C(=O)O)CC1)(c1ccc(O)cc1)c1ccc(O)cc1.[Lu+3] [Compound 107.58] | < 1 | > 10 | –
22 | NS(=O)(=O)c1nnc(NC(=O)C23CC(c4cn(CCNC(=O)[C@H]5CN(C(=O)CN6CCN(CC(=O)O)CCN(CC(=O)O)CCN(CC(=O)O)CC6)CCN5C(=O)[C@@H]5COCCN5C(=O)Cc5n[nH]c6ccccc56)nn4)(C2)C3)s1.[Lu+3] [Compound 107.18] | 2.5 to 10 | > 10 | –
23 | C[C@H](Nc1c(F)c(S(N)(=O)=O)c(F)c(F)c1S(=O)(=O)CCOCc1cn(CCNC(=O)[C@H]2CN(C(=O)CN3CCN(CC(=O)O)CCN(CC(=O)O)CCN(CC(=O)O)CC3)CCN2C(=O)C[C@H](NC(=O)[C@@H]2COCCN2C(=O)CCCc2ccc(O)cc2)C(=O)O)nn1)C1CCCC1.[Lu+3] [Compound 107.42] | < 1 | 2.5 to 10 | –
24 | CC(CCCC(=O)N1CCC(C(=O)O)(C(=O)NCC(=O)N2CCN(C(=O)CN3CCN(CC(=O)O)CCN(CC(=O)O)CCN(CC(=O)O)CC3)C[C@@H]2C(=O)NCCn2cc(C34CCC(C(=O)Nc5nnc(S(N)(=O)=O)s5)(C3)C4)nn2)CC1)(c1ccc(O)cc1)c1ccc(O)cc1.[Lu+3] [Compound 107.24] | 1 to 2.5 | 2.5 to 10 | –
